This is an account of results in US7795244B2, “Penem prodrugs” (priority 2006, dated 2010).

Data set [1] can be described thus: Stability in the presence of porcine pancrelipase (PPE). It counts as in vitro ADME. Particulars: pig, porcine pancrelipase (ku-zyme HP) in phosphate buffer, 50 μM substrate, pH 7.4, 37° C.
Data set [2] is described as follows: Stability in human intestinal juice (HIJ). Particulars: pooled human intestinal juice (4 subjects), buffered, pH 7.4.
The subject of the next data set is K. pneumoniae 1109. Kind of data set: Murine acute systemic infection model. The conditions noted are these: Murine acute systemic infection vs. K. pneumoniae 1109; oral BID; survival day four post-infection; repeat experiments.
The next data set relates to H. influenzae BLNAR. Kind of data set: Gerbil otitis media model. Particulars: Gerbil otitis media vs. H. influenzae BLNAR, oral TID for two days from 18 h post-infection, bacterial levels in middle ear fluid day four, repeat experiments.
A short description of the next data set: Equilibrium solubility. It counts as physicochemical. The conditions noted are these: aqueous buffer, thermodynamic from solid, 25 mM phosphate buffer (pH 5), ambient temperature / 25° C. Here is the method: Vials containing excess prodrug in phosphate buffer were rotated for up to 48 hours. After the equilibrium period, samples were pulled, filtered through 0.45 μm Gelman Acrodisc Nylon syringe filter and analyzed for drug concentration using HPLC. The HPLC conditions were: Column. C18, SymmetryShield RP, Waters, 4.6×150 mm, 3.5 micron; Mobile phase A: Acetonitrile; Mobile phase B: 0.1% TFA in water; Flow rate, 1 mL/min; Run Time: 30 min Inj. vol. 20 μL; Detection: 210 nm; Dissolving solvent: Acetonitrile/water (50:50 v:v).

The subject of data set [3] is S. pneumoniae 1095. Kind of data set: Murine acute systemic infection model. Particulars: Murine acute systemic infection vs. S. pneumoniae 1095; oral BID; survival day four post-infection; repeat experiments.
The conditions of data set [4]: human, pH 7.4.
Another data set deals with K. pneumoniae 6485. Kind of data set: Murine acute systemic infection model. The conditions noted are these: Murine acute systemic infection vs. K. pneumoniae 6485; oral BID; survival day four post-infection; repeat experiments.
Data set [5] has as its system S. pneumoniae 1095. Kind of data set: Murine respiratory tract infection model. Particulars: Murine respiratory tract infection vs. S. pneumoniae 1095; oral BID for two days from 18 h post-infection; survival day ten; repeat experiments.
The conditions of data set [6]: by comparison to intravenous AUCs (Table 4, Foulds et al.), cited from earlier work.
Data set [7] concerns porcine pancrelipase (PPE). Kind of data set: Stability in the presence of porcine pancrelipase (PPE). It counts as in vitro ADME. The conditions noted are these: ku-zyme Lot 1; 50 μM substrate, pH 7.4, 37° C.
The conditions of data set [8]: humans; given orally as a mixture of two stereoisomers; Foulds et al.; cited from earlier work.

Each structure is given as a SMILES string. ≈ marks a conversion by molar mass, not a printed value. Where “and” joins values, the source holds several entries; their conditions need not be identical. Equal values may be shown once. Read-outs that look alike come from different tables or passages of the source.

Take `CC(C)C(=O)OCOC(=O)C1=C(S[C@H]2CC[S@@+]([O-])C2)S[C@@H]2[C@@H]([C@@H](C)O)C(=O)N12` [F]: the half-life at 50 µM in data set [1] (pH 7.4, ku-zyme Lot 1) turned out to be 4.7 min.

Turning to `C[C@@H](O)[C@H]1C(=O)N2C(C(=O)OCOC(=O)OC3CCC(C)(C)CC3)=C(S[C@H]3CC[S@@+]([O-])C3)S[C@H]12` [Compound A], in data set [2], the Michaelis-Menten constant (Km) was 300 µM. Besides, the PD50 in the data set with K. pneumoniae 1109 is 10.1 mg/kg and 15.3 mg/kg; in the data set with S. pneumoniae 1095 [3], 9.0 mg/kg and 15.3 mg/kg; with K. pneumoniae 6485, 40.7 mg/kg; in the data set with S. pneumoniae 1095 [5] it was 17.8 mg/kg and 20.8 mg/kg. For the same molecule, the ED50 in the data set with H. influenzae BLNAR was 8.7 mg/kg; with H. influenzae BLNAR (Haemophilus influenzae, in Meriones unguiculatus, po) it was 6.9 mg/kg. The half-life at 50 µM in [1] (pH 7.4, ku-zyme Lot 1) was 3.9 ± 1.1 min; in data set [1] (pH 7.4, ku-zyme lot 2), 6.3 min. This molecule also gave a solubility in “Equilibrium solubility” of 136 µg/mL (≈ 255 µM). Besides, in data set [4], the “HIJ Clint (avg)” value stood at 0.38 mL/min.

As for `C[C@@H](O)[C@H]1C(=O)N2C(C(=O)OCOC(=O)C(C)(C)C)=C(S[C@H]3CC[S@@+]([O-])C3)S[C@H]12` (racemic) [Compound B2, reference compound], the Michaelis-Menten constant (Km) in data set [2] amounted to 40 µM. Also, the half-life at 50 µM in [1] (pH 7.4, ku-zyme Lot 1) stood at 11.6 min; in data set [1] (pH 7.4, ku-zyme lot 2) it was 19.6 min. Further, the fraction absorbed in data set [6] (sulopenem equivalent dose 205 mg) is on record as 38.5%; in data set [6] (sulopenem equivalent dose 409 mg), 33.5%. The “HIJ Clint (avg)” value in [4] turned out to be 0.09 mL/min.

As to `CC(C)CC(C)(C)C(=O)OCOC(=O)C1=C(S[C@H]2CC[S@@+]([O-])C2)S[C@@H]2[C@@H]([C@@H](C)O)C(=O)N12` [V], in data set [1] (pH 7.4, ku-zyme Lot 1), the half-life at 50 µM came to 10.5 min.

For `C[C@@H](O)[C@H]1C(=O)N2C(C(=O)OCOC(=O)C(C)(C)C(C)(C)C)=C(S[C@H]3CC[S@@+]([O-])C3)S[C@H]12` [S], the half-life at 50 µM in data set [1] (pH 7.4, ku-zyme Lot 1) was found to be 6.3 min.

For `C[C@@H](O)[C@H]1C(=O)N2C(C(=O)OCOC(=O)C(C(C)(C)C)C(C)(C)C)=C(S[C@H]3CC[S@@+]([O-])C3)S[C@H]12` [Y], the half-life at 50 µM in data set [1] (pH 7.4, ku-zyme Lot 1) was found to be 8 min.

As to `C[C@@H](O)[C@H]1C(=O)N2C(C(=O)OCOC(=O)C(C)(C)C)=C(S[C@H]3CC[S@@+]([O-])C3)S[C@H]12` [Compound B1, reference compound], the Michaelis constant (Km) in data set [2] was determined as 29 µM. The half-life at 50 µM in data set [1] (pH 7.4, ku-zyme lot 2) amounted to 22.5 min. This molecule showed a solubility in the data set “Equilibrium solubility” of 389 µg/mL (≈ 839 µM). Further, in data set [4], the “HIJ Clint (avg)” value is 0.11 mL/min. The same molecule displayed a PD50 with K. pneumoniae 6485 of over 100 mg/kg.

On to `CC(C)C(C)(C)C(=O)OCOC(=O)C1=C(S[C@H]2CC[S@@+]([O-])C2)S[C@@H]2[C@@H]([C@@H](C)O)C(=O)N12` [N], for which, in [1] (pH 7.4, ku-zyme Lot 1), the half-life at 50 µM amounted to 11.1 min.

For `CCCC(CCC)C(=O)OCOC(=O)C1=C(S[C@H]2CC[S@@+]([O-])C2)S[C@@H]2[C@@H]([C@@H](C)O)C(=O)N12` [O], the half-life at 50 µM in data set [1] (pH 7.4, ku-zyme Lot 1) was 8.3 min.

On to `CCC(=O)OCOC(=O)C1=C(S[C@H]2CC[S@@+]([O-])C2)S[C@@H]2[C@@H]([C@@H](C)O)C(=O)N12` [X], for which the half-life at 50 µM in [1] (pH 7.4, ku-zyme Lot 1) stood at 4.7 min.

In the case of `CCC(C(=O)OCOC(=O)C1=C(S[C@H]2CC[S@@+]([O-])C2)S[C@@H]2[C@@H]([C@@H](C)O)C(=O)N12)C(C)C` (some centres unmarked) [R], in data set [1] (pH 7.4, ku-zyme Lot 1), the half-life at 50 µM is 5.3 min.

For `C[C@@H](O)[C@H]1C(=O)N2C(C(=O)OCOC(=O)CC(C)(C)C)=C(S[C@H]3CC[S@@+]([O-])C3)S[C@H]12` [W], in data set [1] (pH 7.4, ku-zyme Lot 1), the half-life at 50 µM was 7.6 min.

Consider `CC(C)C(C(=O)OCOC(=O)C1=C(S[C@H]2CC[S@@+]([O-])C2)S[C@@H]2[C@@H]([C@@H](C)O)C(=O)N12)C(C)C` [T], for which the half-life at 50 µM in data set [1] (pH 7.4, ku-zyme Lot 1) amounted to 7.7 min.

Turning to `CCCC(C)C(=O)OCOC(=O)C1=C(S[C@H]2CC[S@@+]([O-])C2)S[C@@H]2[C@@H]([C@@H](C)O)C(=O)N12` (some centres unmarked) [Q], the half-life at 50 µM in data set [1] (pH 7.4, ku-zyme Lot 1) stood at 4.8 min.

`CCC(C)C(=O)OCOC(=O)C1=C(S[C@H]2CC[S@@+]([O-])C2)S[C@@H]2[C@@H]([C@@H](C)O)C(=O)N12` (some centres unmarked) [P]: the “PPE Half Life” value in [7] was found to be 4.2 min.

On to `CCC(C)(C)C(=O)OCOC(=O)C1=C(S[C@H]2CC[S@@+]([O-])C2)S[C@@H]2[C@@H]([C@@H](C)O)C(=O)N12` [J], for which the half-life at 50 µM in data set [1] (pH 7.4, ku-zyme Lot 1) was 11 min.

As for `CC(C)CC(=O)OCOC(=O)C1=C(S[C@H]2CC[S@@+]([O-])C2)S[C@@H]2[C@@H]([C@@H](C)O)C(=O)N12` [E], in data set [1] (pH 7.4, ku-zyme Lot 1), the half-life at 50 µM was 6.4 min.

Turning to `CCCCC(C)(C)C(=O)OCOC(=O)C1=C(S[C@H]2CC[S@@+]([O-])C2)S[C@@H]2[C@@H]([C@@H](C)O)C(=O)N12` [K], the half-life at 50 µM in data set [1] (pH 7.4, ku-zyme Lot 1) is 14.5 min.

With `CCC(CC)(CC)C(=O)OCOC(=O)C1=C(S[C@H]2CC[S@@+]([O-])C2)S[C@@H]2[C@@H]([C@@H](C)O)C(=O)N12` [Compound C], the half-life at 50 µM in data set [1] (pH 7.4, ku-zyme Lot 1) came to 21.1 min.

`CC(C)CC(CC(C)C)C(=O)OCOC(=O)C1=C(S[C@H]2CC[S@@+]([O-])C2)S[C@@H]2[C@@H]([C@@H](C)O)C(=O)N12` [U]: in data set [1] (pH 7.4, ku-zyme Lot 1), the half-life at 50 µM amounted to 6.4 min.

Regarding `CC(O)C1C(=O)N2C(C(=O)OCOC(=O)C(C)(C)C)=C(SC3CC[S+]([O-])C3)SC12` (centres unmarked) [sulopenem POM ester], the “oral bioavailability (in words)” value in data set [8] is recorded as “orally bioavailable in humans”.

`CCC(C)C(=O)OCOC(=O)C1=C(S[C@H]2CC[S@@+]([O-])C2)S[C@@H]2[C@@H]([C@@H](C)O)C(=O)N12` (some centres unmarked) [H]: the half-life at 50 µM in [1] (pH 7.4, ku-zyme Lot 1) was determined as 6.8 min.

On to `CCC(C)(CC)C(=O)OCOC(=O)C1=C(S[C@H]2CC[S@@+]([O-])C2)S[C@@H]2[C@@H]([C@@H](C)O)C(=O)N12` [M], for which the half-life at 50 µM in [1] (pH 7.4, ku-zyme Lot 1) was 39.4 min.

On to `CC(=O)OCOC(=O)C1=C(S[C@H]2CC[S@@+]([O-])C2)S[C@@H]2[C@@H]([C@@H](C)O)C(=O)N12` [G], for which, in data set [2], the Michaelis constant (Km) is 390 µM. Further, the half-life at 50 µM in data set [1] (pH 7.4, ku-zyme Lot 1) came out at 21.2 min. Further, the “HIJ Clint (avg)” value in data set [4] is listed as 0.18 mL/min.

In the case of `CCOC(C)(C)C(=O)OCOC(=O)C1=C(S[C@H]2CC[S@@+]([O-])C2)S[C@@H]2[C@@H]([C@@H](C)O)C(=O)N12` [Compound 2, (2-Ethoxy-2-methyl-1-oxopropoxy)methyl (5R,6S)-6-[(1R)-1-hydroxyethyl]-7-oxo-3-[[(1R,3S)-tetrahydro-1-oxido-3-thienyl]thio]-4-thia-1-azabicyclo[3.2.0]hept-2-ene-2-carboxylate], the Km in data set [2] stood at 105 µM. The PD50 with K. pneumoniae 1109 was 12.5 mg/kg and 16.2 mg/kg; in the data set with S. pneumoniae 1095 [3], 7.9 mg/kg and 6.3 mg/kg and 11.0 mg/kg; with S. pneumoniae 1095 [5], 19.7 mg/kg and 38.5 mg/kg. The half-life at 50 µM in data set [1] (pH 7.4, ku-zyme Lot 1) stood at 19.1 min. Also, the solubility in “Equilibrium solubility” came to 2900 µg/mL (≈ 5870 µM). Also, the “HIJ Clint (avg)” value in data set [4] amounted to 0.13 mL/min.

`CCCC(C)(C)C(=O)OCOC(=O)C1=C(S[C@H]2CC[S@@+]([O-])C2)S[C@@H]2[C@@H]([C@@H](C)O)C(=O)N12` [Compound I]: the half-life at 50 µM in [1] (pH 7.4, ku-zyme Lot 1) is 14.4 min.
